Key:
3xTg-AD mice = test: Novel object recognition test; assay type: in vivo, mouse; conditions: 3xTg-AD offspring, 3-4 months; P021 diet 60 nmol/g E8-PND21; 20-min delay, 5-min test phase; 3xTg-Vh vs 3xTg-P021 P = 0.0007
Protocol: Pregnant 3xTg-AD and wild-type (WT) mice were treated with compound P021 in mouse chow, or as control with vehicle feed from gestational day 8 (E8) till their offspring/pups reached PND21, at which point the offspring were separated from their mother and put on normal mouse chow (Fig. 1). There were four study groups of mice, as follows: offspring of WT treated with vehicle diet (WT-Vh, n = 10), offspring of WT treated with P021 diet (WT-P021, n = 17), offspring of 3xTg-AD treated with vehicle diet (3xTg-Vh, n = 12), and offspring of 3xTg-AD treated with P021 diet (3xTg-P021, n = 18). Elevated plus maze, novel object recognition test, and Morris water maze were carried out consecutively from postnatal day 90 with all of mice. About 50% (4 animals/group) of the female offspring (n = 7–8 animals/group) were sacrificed at 4 months of age and the remaining 50% (3–4 animals/group) at 22 months of age. […]
The novel object recognition memory task has been used to evaluate hippocampus-dependent memory in rodents through an evaluation of the differences in the exploration time of novel and familiar objects. […] The object discrimination index (DI) during the test phase was calculated as DI = [(time spent exploring the new object − time spent exploring the old object)/(time spent exploring both old and new objects)] × 100%.

GFAP = GFAP immunofluorescence, CA1; assay type: in vivo, mouse; conditions: P021 diet E8-PND21
Protocol: We treated 2- to 3-month-old pregnant 3xTg-AD and WT mothers with compound P021 in mouse chow, or with vehicle feed as control at E8 until their offspring/pups reached PND21, at which point the offspring were separated and put on standard mouse chow (Fig. 1). Treatment was administered as 60 nmol peptide/g formulated diet (Research Diets; New Brunswick, NJ, USA). The vehicle-treated control animals received the same diet but without the peptide. On average, each mouse consumed ~ 2.7 g diet/day.
The complete right hemisphere was immersion-fixed in 4% paraformaldehyde in 0.1 M PBS for 24–48 h, followed by cryoprotection in a 30% sucrose solution at 4 °C overnight. Later, the 40-μm-thick sagittal sections were cut on a freezing microtome. […]
Immunofluorescence staining was performed on free-floating sections, and every 12th brain section was chosen for densitometry and quantification. For immunohistochemical quantification, six brain sections of four animals per group were analyzed. All stainings for fluorescence-intensity quantification were carried out under identical conditions, including all tissue samples for a particular staining processed at the same time, and experimental and control sections photographed under identical settings. […]

Ac-DGGL^AG-NH2 [P021, 4-mer CNTF small molecule peptide mimetic to which adamantylated glycine was added at the C-terminal]
discrimination index in the test phase (3xTg-AD mice): improved
astrocyte morphology at high magnification (GFAP; CA1, 22-month-old 3xTg-AD mice, 3xTg-Vh astrocytes amoeboid): ramified with long processes and small cell body (resting phenotype)
GFAP immunoreactivity (GFAP; CA1 region, 22-month-old 3xTg-AD mice): rescued
